Assay results reported in the supplement of paper PMC10307832.

Tests used:
Assay in all cases: relative viability (nuclei count vs DMSO), 5 days (fraction); higher = more cells survive
[1] = compound: Cn1cc(-c2cnc3ccc4ccc(CS(=O)(=O)NCc5ccccn5)cc4c(=O)c3c2)cn1 [MK-8033] + Cc1nc(NC(=O)N2CCC[C@H]2C(N)=O)sc1-c1ccnc(C(C)(C)C(F)(F)F)c1 [Alpelisib] (partner 2 µM)
How it was run: (§1)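 Lung cancer cell lines were pin-tool dosed in 1536-well plates on the day after seeding, with either a lone drug or a fixed anchor-drug dose plus five library-drug doses (not always all listed) in √10 steps. Nuclei were counted on 4× images after 5 days. Relative viability is the ratio of treated-well to vehicle-well nuclei counts, with each value a median of duplicate plates.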

[2] = compound: CC[C@@H](C)CNCC(=O)N1CCC2=C([C@@H]1COC3=CC=CC(=C3)C)C=CS2 [RU-SKI 43] + CS(=O)(=O)N1CCN(Cc2cc3nc(-c4cccc5[nH]ncc45)nc(N4CCOCC4)c3s2)CC1 [Pictilisib] (partner 1 µM)
How it was run: as §1

[3] = compound: CC[C@@H](C)CNCC(=O)N1CCC2=C([C@@H]1COC3=CC=CC(=C3)C)C=CS2 [RU-SKI 43] + COc1cccc2cc(-c3nc([C@H]4CC[C@H](C(=O)O)CC4)n4ncnc(N)c34)[nH]c12 [OSI-027] (partner 0.5 µM)
How it was run: as §1

[4] = compound: Cn1cc(-c2cnc3ccc4ccc(CS(=O)(=O)NCc5ccccn5)cc4c(=O)c3c2)cn1 [MK-8033] + Cc1nc(Nc2ncc(C(=O)Nc3c(C)cccc3Cl)s2)cc(N2CCN(CCO)CC2)n1 [Dasatinib] (partner 0.075 µM)
How it was run: as §1

Cell Line: UMC-11
- relative viability ([1]; first compound 0.02 µM): 0.988
- relative viability ([1]; first compound 0.06325 µM): 0.979
- relative viability ([1]; first compound 0.2 µM): 0.958
- relative viability ([1]; first compound 0.6325 µM): 0.961
- relative viability ([1]; first compound 2 µM): 0.986
- relative viability ([2]; first compound 0.1 µM): 0.958
- relative viability ([2]; first compound 0.3162 µM): 1.11
- relative viability ([2]; first compound 1 µM): 0.876
- relative viability ([2]; first compound 3.162 µM): 0.789
- relative viability ([2]; first compound 10 µM): 0.695
- relative viability ([3]; first compound 0.1 µM): 0.534
- relative viability ([3]; first compound 0.3162 µM): 0.631
- relative viability ([3]; first compound 1 µM): 0.492
- relative viability ([3]; first compound 3.162 µM): 0.5
- relative viability ([3]; first compound 10 µM): 0.463
- relative viability ([4]; first compound 0.02 µM): 0.448
- relative viability ([4]; first compound 0.06325 µM): 0.378
- relative viability ([4]; first compound 0.2 µM): 0.421
- relative viability ([4]; first compound 2 µM): 0.413
